The test system of experiment [1] is Murine neurons. The experiment in a line: Growth of new neurites after transection (scratch) injury in vitro. The experiment is classed as cell-based, mouse. The following applies: co-treatment with subtherapeutic BDNF, added following scratch injury (FIG. 14). The procedure: FIG. 14 contains a series of images showing that inhibition of PAR1 signaling accelerates growth of new neurites following transection injury in vitro. Murine neurons were cultured in vitro to confluence, and then a large wound was created by mechanically scratching the center of each field. The PAR1 inhibitor Vorapaxar, subtherapeutic growth factor BDNF, or both were added following injury. […] Results are plotted in the graph in the right panel (*P<0.05 SNK, n=6 all groups). Inhibition of PAR1 signaling accelerated growth of new neurites following transection injury in vitro (FIG. 14). Murine neurons were cultured in vitro to confluence, and then a large wound was created by mechanically scratching the center of each field. The PAR1 inhibitor Vorapaxar, subtherapeutic growth factor […], or both were added following injury.

Experiment [2] relates to primary mouse cortical neurons. The experiment in a line: Synaptogenesis (Homer puncta per TUJ1+ area) in primary cortical neurons. The class given is cell-based. Particulars: co-treatment with subtherapeutic BDNF; 24 and 72 hours of treatment (FIG. 13). The procedure: FIG. 13 contains images showing that inhibition of PAR1 signaling accelerates synaptogenesis in primary mouse cortical neurons. Murine neurons were cultured in vitro for 24 hours before addition of the PAR1 inhibitor Vorapaxar, subtherapeutic growth factor BDNF, Or both. […] Synapse density was quantified by staining for Homer, a scaffold protein concentrated at the post-synaptic densities by counting puncta in ImageJ. Synapse counts were normalized by total neurite area (TUJ1+ area) to determine the density of synapses on neurites (average of 5 randomly selected fields per well, 6 wells per treatment). Results are plotted in the graphs in the right panel *P<0.05 SNK, n=6 all groups, both timepoints). Inhibition of PAR1 signaling also accelerated synaptogenesis in primary mouse cortical neurons (FIG. 13). Murine neurons were cultured in vitro for 24 hours before addition of the PAR1 inhibitor Vorapaxar, subtherapeutic growth factor BDNF, or both. […] Synapse density was quantified by staining for Homer, a scaffold protein concentrated at the post-synaptic densities by counting puncta in ImageJ. Synapse counts were normalized by total neurite area (TUJ1+ area) to determine the density of synapses on neurites (average of 5 randomly selected fields per well, 6 wells per treatment).

Experiment [3] deals with HMGCS1. The experiment in a line: HMGCS1 expression in primary cortical neurons (real-time quantitative PCR). The class given is cell-based, murine. As to the method:
FIG. 3 is a graph plotting HMGCS1 expression in cultures of primary cortical neurons treated with the PAR1 small molecule inhibitor Vorapaxar (100 nM) or vehicle control for 72 hours.
Expression of HMGCS1, an enzyme responsible for production of HMGCoA for the rate-limiting step in cholesterol biosynthesis, was quantified by real-time quantitative PCR.
HMGCS1 is responsible for production of HMGCoA for the rate-limiting step in cholesterol biosynthesis.

Experiment [4] deals with primary mouse cortical neurons. The experiment is described as follows: Neurite outgrowth under statin inhibition of cholesterol production. The following applies: statin-treated cultures. The experiment is classed as cell-based. The text has this:
Neurite outgrowth was quantified by staining for TUJ1 (a cytoskeletal protein present in both axons and dendrites) and measuring TUJ1+ area (the average of 5 randomly selected fields per well, 6 wells per treatment). *P<0.05 SNK, n=6 all groups.
Neurite outgrowth was quantified by staining for TUJ1 (a cytoskeletal protein present in both axons and dendrites) and measuring TUJ1+ area (the average of 5 randomly selected fields per well, 6 wells per treatment).

Experiment [5] deals with primary mouse cortical neurons. The experiment in a line: Neurite outgrowth (TUJ1+ area) in primary cortical neurons. The class given is cell-based. The following applies: co-treatment with subtherapeutic BDNF; 24 and 72 hours of treatment (FIG. 12). The procedure: FIG. 12 contains a series of images showing that inhibition of PAR1 signaling accelerates neurite outgrowth in primary mouse cortical neurons. Murine neurons were cultured for 24 hours before addition of the PAR1 inhibitor Vorapaxar, subtherapeutic growth factor BDNF, or both. […] Neurite outgrowth was quantified by staining for TUJI (a cytoskeletal protein present in both axons and dendrites) and measuring TUJI+ area (the average of 5 randomly selected fields per well, 6 wells per treatment). Production of lipids and cholesterol, major constituents of neuronal membranes, was required to grow both axons and dendrites. Results are plotted in the graphs in the right panel (*P<0,05 SNK, n=6 all groups, both timepoints). […] Murine neurons were cultured for 24 hours before addition of the PAR1 inhibitor Vorapaxar, subtherapeutic growth factor BDNF, or both. […] Neurite outgrowth was quantified by staining for TUJ1 (a cytoskeletal protein present in both axons and dendrites) and measuring TUJ1+ area (the average of 5 randomly selected fields per well, 6 wells per treatment). Production of lipids and cholesterol, major constituents of neuronal membranes, was required to grow both axons and dendrites.

The test system of experiment [6] is SH-SY5Y cells. The experiment is described as follows: Cellular cholesterol content, amplex red colorimetric assay. The experiment is classed as cell-based, human. Particulars: 100 nM, 72 hours (FIG. 22). The procedure:
FIG. 22 is a graph plotting human neuronal (SH-SY5Y) cells grown in the presence of the small molecule PAR1 inhibitor, Vorapaxar (“Vora,” at 100 nM) or control for 72 hours. […] Cholesterol content was quantified by the amplex red colorimetric assay. Finally, cholesterol levels were evaluated in a human neuronal cell line (SH-SY5Y cells) grown in the presence of the small molecule PAR1 inhibitor, Vorapaxar, for 72 hours.

For the molecule `CCOC(=O)N[C@@H]1CC[C@@H]2[C@@H](C1)C[C@H]1C(=O)O[C@H](C)[C@H]1[C@H]2/C=C/c1ccc(-c2cccc(F)c2)cn1` [Vorapaxar], in experiment [1], the “growth of new neurites through the injury zone (TUJ1+ area in the scratch)” value is “potentiated the effect of BDNF, significantly increasing growth of new neurites through the injury zone”. Moreover, in experiment [2], the “production of synaptic densities (Homer puncta normalized by TUJ1+ area)” value is recorded as “potentiated the effect of BDNF, significantly increasing production of synaptic densities”. Also, the HMGCS1 expression result in experiment [3] (primary cortical neurons, 100 nM, 72 hours, vs vehicle-treated controls (FIG. 3)) is listed as “promoted increases in HMGCS1 expression”. The “expression of HMGCS1 (real-time quantitative PCR)” value in experiment [3] (primary murine cortical neurons, with or without co-treatment with BDNF (FIG. 15)) is reported as “increased the expression of HMGCS1”. Also, the “recovery of neurite production (TUJ1+ area) from statin treatment” value in experiment [4] (agent alone (FIG. 16)) was “did not result in recovery of neurite production”; in experiment [4] (co-treatment of PAR1 inhibitor with subtherapeutic BDNF (FIG. 16)), “partially rescued neurite production from statin treatment”. For the same molecule, in experiment [5], the “production of neurites (TUJ1+ area)” value is “potentiated the effect of BDNF, significantly increasing production of neurites”. The “cellular cholesterol vs untreated cells” value in experiment [6] is “more than twice the amount of cellular cholesterol”.

B1: BDNF: subtherapeutic growth factor BDNF (protein, UniProt P23560 19-247, looked up)
Neurotrophic factor BDNF …: APMKEANIRGQGGLAYPGVRTHGTLESVNGPKAGSRGLTSLADTFEHVIEELLDEDQKVRPNEENNKDADLYTSRVMLSSQVPLEPPLLFLLEEYKNYLDAANMSMRVRRHSDPARRGELSVCDSISEWVTAADKKTAVDMSGGTVTVLEKVPVSKGQLKQYFYETKCNPMGYTKEGCRGIDKRHWNSQCRTTQSYVRALTMDSKKRIGWRFIRIDTSCVCTLTIKRGR
As to B1, the “recovery of neurite production (TUJ1+ area) from statin treatment” value in experiment [4] (agent alone (FIG. 16)) is given as “did not result in recovery of neurite production”.

The values above are taken from patent US20230061116A1, “TARGETING PAR1 AND PAR2 TO REGULATE LIPID AND CHOLESTEROL ABUNDANCE” (Mayo Foundation for Medical Education and Research, priority 2020, published 2023).
